From PubChem BioAssay AID1259411 (Chemical Carcinogenesis Research Information System (CCRIS), 2018)
Calls of active or inactive are those of the source. The rule behind the calls is not given here.

System: rodent carcinogenicity bioassays, tumor incidence
Assay: CCRIS carcinogenicity studies
Method in brief: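 NCI-built, expert-reviewed records of carcinogenicity and related test outcomes (mutagenicity, tumor promotion/inhibition) compiled from published and report sources, historical span 1985-2011, not updated.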

SMILES: Brc1c2ccccc2cc2c1ccc1ccccc12
- carcinogen call (Species: MOUSE, Strain/Sex: B6C3F1/MALE, Route: INTRAPERITONEAL, Dose: 0, 1600 NMOL (TOTAL DOSE) ADMINISTERED IN DOSES OF 1/7 WITHIN 24 HR OF BIRTH, 2/7 AT 8 DAYS OF AGE AND 4/7 AT 15 DAYS OF, Tumor Site: Type of Lesion: LIVER: ADENOMA, CARCINOMA): active; positive

SMILES: OC1c2cc3c4c(ccc5cccc(c54)C3)c2C2OC2C1O (stereo not given)
- carcinogen call (Species: MOUSE, Strain/Sex: ICR/FEMALE, Route: INTRAPERITONEAL, Dose: 0, 500 NMOL (TOTAL DOSE) ADMINISTERED IN DOSES OF 1/7, 2/7, AND 4/7 ON DAYS 1, 7, AND 15 OF LIFE, RESPECTIVELY (STUDY DU, Tumor Site: Type of Lesion: LUNG: TUMOR): active; positive
- carcinogen call (Species: MOUSE, Strain/Sex: ICR/MALE, Route: INTRAPERITONEAL, Dose: 0, 500 NMOL (TOTAL DOSE) ADMINISTERED IN DOSES OF 1/7, 2/7, AND 4/7 ON DAYS 1, 7 AND 15 OF LIFE , RESPECTIVELY (STUDY DU, Tumor Site: Type of Lesion: LUNG: TUMOR, LIVER: TUMOR): active; positive

SMILES: O=C1NC(=O)C(c2ccccc2)(c2ccccc2)N1
- carcinogen call (Species: MOUSE, Route: INTRAPERITONEAL, ORAL, Tumor Site: Type of Lesion: HEMATOPOIETIC SYSTEM (LEUKEMIA), LYMPHATIC SYSTEM: LYMPHOMA): active; positive
- carcinogen call (Species: MOUSE, Strain/Sex: B6C3F1/FEMALE, Route: IN UTERO, ORAL, Dose: 0, 21 PPM IN DIET FED TO MOTHERS 1 WK BEFORE BREEDING, THROUGH BREEDING, GESTATION AND LACTATION, THEN DIETS WITH 60 PPM): inactive; negative
- carcinogen call (Species: MOUSE, Strain/Sex: B6C3F1/FEMALE, Route: IN UTERO, ORAL, Dose: 0, 70 PPM IN DIET FED TO MOTHERS 1 WK BEFORE BREEDING, THROUGH BREEDING, GESTATION AND LACTATION, THEN DIETS WITH 200 PP): inactive; negative
- carcinogen call (Species: MOUSE, Strain/Sex: B6C3F1/FEMALE, Route: IN UTERO, ORAL, Dose: 0, 210 PPM IN DIET FED TO MOTHERS 1 WK BEFORE BREEDING, THROUGH BREEDING, GESTATION AND LACTATION, THEN DIETS WITH 0, 20, Tumor Site: Type of Lesion: LIVER: HEPATOCELLULAR ADENOMA, HEPATOCELLULAR CARCINOMA): active; positive
- carcinogen call (Species: MOUSE, Strain/Sex: B6C3F1/FEMALE, Route: ORAL, Dose: 0, 200, 600 PPM IN DIET FOR 2 YR (STUDY DURATION: 2 YR), Dose: 0, 200, 600 PPM IN DIET FOR 2 YR (STUDY DURATION: 2 YR), Tumor Site: Type of Lesion: LIVER: HEPATOCELLULAR ADENOMA, HEPATOCELLULAR CARCINOMA): active; positive
- carcinogen call (Species: MOUSE, Strain/Sex: B6C3F1/MALE, Route: IN UTERO, ORAL, Dose: 0, 21 PPM IN DIET FED TO MOTHERS 1 WK BEFORE BREEDING, THROUGH BREEDING, GESTATION AND LACTATION, THEN DIETS WITH 30 PPM): inactive; negative
- carcinogen call (Species: MOUSE, Strain/Sex: B6C3F1/MALE, Route: IN UTERO, ORAL, Dose: 0, 70 PPM IN DIET FED TO MOTHERS 1 WK BEFORE BREEDING, THROUGH BREEDING, GESTATION AND LACTATION, THEN DIETS WITH 100 PP): inactive; negative
- carcinogen call (Species: MOUSE, Strain/Sex: B6C3F1/MALE, Route: IN UTERO, ORAL, Dose: 0, 210 PPM IN DIET FED TO MOTHERS 1 WK BEFORE BREEDING, THROUGH BREEDING, GESTATION AND LACTATION, THEN DIETS WITH 0, 10): inactive; negative
- carcinogen call (Species: MOUSE, Strain/Sex: B6C3F1/MALE, Route: ORAL, Dose: 0, 100, 300 PPM IN DIET FOR 2 YR (STUDY DURATION: 2 YR), Dose: 0, 100, 300 PPM IN DIET FOR 2 YR (STUDY DURATION: 2 YR)): inactive; negative
- carcinogen call (Species: RAT, Strain/Sex: F344/DUCRJ/FEMALE, Route: ORAL, Dose: 0, 0.025, 0.05% IN BASAL DIET FOR 2 YR (STUDY DURATION: 112 WK), Dose: 0, 0.025, 0.05% IN BASAL DIET FOR 2 YR (STUDY DURATION: 112 WK)): inactive; negative
- carcinogen call (Species: RAT, Strain/Sex: F344/DUCRJ/MALE, Route: ORAL, Dose: 0, 0.025, 0.05% IN BASAL DIET FOR 2 YR (STUDY DURATION: 112 WK), Dose: 0, 0.025, 0.05% IN BASAL DIET FOR 2 YR (STUDY DURATION: 112 WK)): inactive; negative
- carcinogen call (Species: RAT, Strain/Sex: F344/FEMALE, Route: IN UTERO, ORAL, Dose: 0, 63 PPM IN DIET FED TO MOTHERS 1 WK BEFORE BREEDING, THROUGH BREEDING, GESTATION AND LACTATION, THEN DIETS WITH 240 PP): inactive; negative
- carcinogen call (Species: RAT, Strain/Sex: F344/FEMALE, Route: IN UTERO, ORAL, Dose: 0, 210 PPM IN DIET FED TO MOTHERS 1 WK BEFORE BREEDING, THROUGH BREEDING, GESTATION AND LACTATION, THEN DIETS WITH 800 P): inactive; negative
- carcinogen call (Species: RAT, Strain/Sex: F344/FEMALE, Route: IN UTERO, ORAL, Dose: 0, 630 PPM IN DIET FED TO MOTHERS 1 WK BEFORE BREEDING, THROUGH BREEDING, GESTATION AND LACTATION, THEN DIETS WITH 0, 80): inactive; negative
- carcinogen call (Species: RAT, Strain/Sex: F344/FEMALE, Route: ORAL, Dose: 0, 800, 2400 PPM IN DIET FOR 2 YR (STUDY DURATION: 2 YR), Dose: 0, 800, 2400 PPM IN DIET FOR 2 YR (STUDY DURATION: 2 YR)): inactive; negative
- carcinogen call (Species: RAT, Strain/Sex: F344/MALE, Route: IN UTERO, ORAL, Dose: 0, 63 PPM IN DIET FED TO MOTHERS 1 WK BEFORE BREEDING, THROUGH BREEDING, GESTATION AND LACTATION, THEN DIETS WITH 240 PP): inactive; negative
- carcinogen call (Species: RAT, Strain/Sex: F344/MALE, Route: IN UTERO, ORAL, Dose: 0, 210 PPM IN DIET FED TO MOTHERS 1 WK BEFORE BREEDING, THROUGH BREEDING, GESTATION AND LACTATION, THEN DIETS WITH 800 P): inactive; negative
- carcinogen call (Species: RAT, Strain/Sex: F344/MALE, Route: IN UTERO, ORAL, Dose: 0, 630 PPM IN DIET FED TO MOTHERS 1 WK BEFORE BREEDING, THROUGH BREEDING, GESTATION AND LACTATION, THEN DIETS WITH 0, 80): inactive; negative
- carcinogen call (Species: RAT, Strain/Sex: F344/MALE, Route: ORAL, Dose: 0, 800, 2400 PPM IN DIET FOR 2 YR (STUDY DURATION: 2 YR), Dose: 0, 800, 2400 PPM IN DIET FOR 2 YR (STUDY DURATION: 2 YR), Tumor Site: Type of Lesion: LIVER: HEPATOCELLULAR ADENOMA OR CARCINOMA): equivocal

SMILES: Cc1cc(O)c(C(C)(C)C)cc1Sc1cc(C(C)(C)C)c(O)cc1C
- carcinogen call (Species: MOUSE, Strain/Sex: B6C3F1/FEMALE, Route: ORAL, Dose: 0, 250, 500, 1000 PPM IN DIET FOR 2 YR (STUDY DURATION: 104 WK), Dose: 0, 250, 500, 1000 PPM IN DIET FOR 2 YR (STUDY DURATION: 104 WK)): inactive; negative
- carcinogen call (Species: MOUSE, Strain/Sex: B6C3F1/MALE, Route: ORAL, Dose: 0, 250, 500, 1000 PPM IN DIET FOR 2 YR (STUDY DURATION: 104 WK), Dose: 0, 250, 500, 1000 PPM IN DIET FOR 2 YR (STUDY DURATION: 104 WK)): inactive; negative
- carcinogen call (Species: RAT, Strain/Sex: F344/FEMALE, Route: ORAL, Dose: 0, 500, 1000, 2500 PPM IN DIET FOR 2 YR (STUDY DURATION: 104 WK), Dose: 0, 500, 1000, 2500 PPM IN DIET FOR 2 YR (STUDY DURATION: 104 WK)): inactive; negative
- carcinogen call (Species: RAT, Strain/Sex: F344/MALE, Route: ORAL, Dose: 0, 500, 1000, 2500 PPM IN DIET FOR 2 YR (STUDY DURATION: 104 WK), Dose: 0, 500, 1000, 2500 PPM IN DIET FOR 2 YR (STUDY DURATION: 104 WK)): inactive; negative

SMILES: Nc1cc([N+](=O)[O-])ccc1NC(CO)(CO)CO
- carcinogen call (Species: RAT, Strain/Sex: SPRAGUE-DAWLEY/FEMALE, Route: ORAL, Dose: 0, 0.2, 0.6, 2% IN DIET OF MATED AND NONMATED RATS FOR UP TO 6 MO (STUDY DURATION: 6 MO), Dose: 0, 0.2, 0.6, 2% IN DIET OF MATED AND NONMATED RATS FOR UP TO 6 MO (STUDY DURATION: 6 MO), Tumor Site: Type of Lesion: MAMMARY GLAND: TUMOR): active; positive
- carcinogen call (Species: RAT, Strain/Sex: SPRAGUE-DAWLEY/MALE, Route: ORAL, Dose: 0, 0.2, 0.6, 2% IN DIET FOR UP TO 6 MO (STUDY DURATION: 6 MO), Dose: 0, 0.2, 0.6, 2% IN DIET FOR UP TO 6 MO (STUDY DURATION: 6 MO)): inactive; negative

SMILES: c1ccc2c(c1)ccc1cc3ccc4ccccc4c3nc12
- carcinogen call (Species: MOUSE, Strain/Sex: CD-1/FEMALE, Route: INTRAPERITONEAL, Dose: 0, 175 NMOL (TOTAL DOSE) ADMINISTERED AS 1/7 OF DOSE WITHIN 24 HR AFTER BIRTH, 2/7 OF DOSE AT 8 D OLD, 4/7 OF DOSE AT 15, Tumor Site: Type of Lesion: LUNG: TUMOR): active; positive
- carcinogen call (Species: MOUSE, Strain/Sex: CD-1/MALE, Route: INTRAPERITONEAL, Dose: 0, 175 NMOL (TOTAL DOSE) ADMINISTERED AS 1/7 OF DOSE WITHIN 24 HR AFTER BIRTH, 2/7 OF DOSE AT 8 D OLD, 4/7 OF DOSE AT 15, Tumor Site: Type of Lesion: LIVER: TUMOR, LUNG: TUMOR): active; positive
